Strand notation (5' to 3'): a small letter for the sugar, then the base; units joined by * are phosphorothioate-linked, units joined directly phosphodiester-linked; [ ] holds rarer units or linkages, { } end groups; capitals alone tell only the bases. e = 2'-O-(2-methoxyethyl) (MOE); [5mC] = 5-methylcytosine; d = 2'-deoxy (DNA)
Test system: human SMAD7 mRNA
Test: Antisense inhibition of human SMAD7 mRNA expression in Hep3B cells by 5-10-5 MOE gapmers, single concentration, electroporation, RT-PCR (Example 1, Study 1 and 2)
Assay type: cell-based
How it was run: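 Hep3B cells (20,000/well) electroporated with 5-10-5 MOE gapmer at 5,000 nM or 15,000 nM for approximately 24 h. SMAD7 mRNA quantified by real-time PCR with primer probe set RTS5062 and normalized to RIBOGREEN total RNA. Values are percent inhibition relative to untreated controls.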

[1] = electroporation, 15,000 nM antisense oligonucleotide (Study 2), 5-10-5 MOE gapmers targeting SEQ ID NO: 1 and 2
[2] = electroporation, 15,000 nM, approximately 24 hours, relative to untreated control cells, gapmers targeting SEQ ID NO: 1 and 2
[3] = electroporation with 15,000 nM antisense oligonucleotide (Study 2), 5-10-5 MOE gapmers targeting SEQ ID NO: 1 and 2
[4] = Study 2, electroporation with 15,000 nM antisense oligonucleotide, 5-10-5 MOE gapmers targeting SEQ ID NO: 1 and 2
[5] = electroporation, 5,000 nM, approximately 24 hours, relative to untreated control cells, gapmers targeting SEQ ID NO: 1 and 2

Substance: 771482 (antisense e[5mC]*e[5mC]*eG*e[5mC]*eT*dG*d[5mC]*dA*dG*dG*d[5mC]*dT*dG*dT*dA*e[5mC]*eG*e[5mC]*e[5mC]*eT) [compound 771482]
- % inhibition of SMAD7 mRNA expression [1]: 38%

Substance: 771693 (antisense eT*e[5mC]*e[5mC]*e[5mC]*eA*dG*dG*dA*dG*dG*dG*dT*dA*dT*dG*e[5mC]*eA*e[5mC]*eA*e[5mC]) [compound 771693]
- % inhibition of SMAD7 mRNA expression [2]: 45%

Substance: 771722 (antisense eA*eG*eA*eG*eG*dG*dA*dG*d[5mC]*dT*d[5mC]*d[5mC]*dA*dG*dG*eA*eA*eT*eT*eT) [compound 771722]
- % inhibition of SMAD7 mRNA expression [1]: 10%

Substance: 771349 (antisense eA*e[5mC]*eT*e[5mC]*e[5mC]*dA*dA*dA*dG*dG*dT*dG*d[5mC]*dG*d[5mC]*eG*eG*e[5mC]*e[5mC]*eA) [compound 771349]
- % inhibition of SMAD7 mRNA expression [1]: 26%

Substance: 771680 (antisense eA*eT*eT*eT*eA*dT*dA*dT*dT*dA*dA*dA*dG*d[5mC]*dA*eA*eA*eG*eT*eG) [compound 771680]
- % Inhibition of SMAD7 mRNA [3]: 0%
- % inhibition of SMAD7 mRNA expression [3]: 0%

Substance: 771401 (antisense eG*e[5mC]*eA*eG*eG*d[5mC]*dG*dA*d[5mC]*dA*dG*d[5mC]*dA*dG*d[5mC]*eA*eG*e[5mC]*eA*eG) [compound 771401]
- % Inhibition [4]: 21%

Substance: 771811 (antisense eT*eG*e[5mC]*e[5mC]*eT*d[5mC]*dA*dT*dT*d[5mC]*dT*dT*dT*d[5mC]*d[5mC]*eA*eG*eG*eA*e[5mC]) [compound 771811]
- % Inhibition [4]: 50%
- % inhibition of SMAD7 mRNA expression [5]: 48%

Substance: 771952 (antisense eT*e[5mC]*eT*eT*e[5mC]*dT*d[5mC]*dT*dG*d[5mC]*dA*dG*dA*dG*d[5mC]*eA*e[5mC]*eA*eG*eA) [compound 771952]
- % Inhibition of SMAD7 mRNA [3]: 26%
- % inhibition of SMAD7 mRNA expression [1]: 0%

Substance: 771427 (e[5mC]*e[5mC]*eT*e[5mC]*eG*d[5mC]*dA*d[5mC]*d[5mC]*dG*d[5mC]*d[5mC]*dT*dT*dG*e[5mC]*e[5mC]*e[5mC]*eA*eG; antisense) [compound 771427]
- % inhibition of SMAD7 mRNA expression [1]: 36%

Substance: 771617 (antisense e[5mC]*eA*eG*eT*eG*d[5mC]*dT*dG*dA*dG*d[5mC]*dT*dG*dG*dT*eT*eT*eT*e[5mC]*eT) [compound 771617]
- % inhibition of SMAD7 mRNA expression [3]: 10%

Substance: 771463 (antisense eG*eG*e[5mC]*eT*e[5mC]*d[5mC]*dT*dG*dG*dA*d[5mC]*dA*d[5mC]*dA*dG*eT*eA*eG*eA*eG) [compound 771463]
- % Inhibition [4]: 10%

Substance: 771644 (antisense eG*eA*eA*eG*eA*dA*dA*dT*dG*dA*dA*dA*dG*dA*dA*eG*eA*eG*eT*eT) [compound 771644]
- % inhibition of SMAD7 mRNA expression [4]: 0%

Substance: 771714 (antisense eT*e[5mC]*eT*eG*eG*dA*d[5mC]*dT*dA*dA*dA*dG*d[5mC]*dT*dT*e[5mC]*e[5mC]*eA*e[5mC]*eG) [compound 771714]
- % inhibition of SMAD7 mRNA expression [1]: 44%

Substance: 771524 (antisense eT*eT*eG*e[5mC]*eA*dT*dG*dA*dA*dA*dA*dG*d[5mC]*dA*dA*eG*e[5mC]*eA*e[5mC]*eT) [compound 771524]
- % inhibition of SMAD7 mRNA expression [4]: 19%

Substance: 771360 (antisense eA*e[5mC]*e[5mC]*eT*eT*dG*dT*d[5mC]*dA*d[5mC]*d[5mC]*d[5mC]*dG*dT*d[5mC]*eT*eG*eG*eG*e[5mC]) [compound 771360]
- % inhibition of SMAD7 mRNA expression [2]: 49%

Substance: 771656 (antisense eG*eT*eT*eA*eA*dA*dG*dT*d[5mC]*dT*dA*dA*dA*d[5mC]*dA*eT*eG*e[5mC]*eT*e[5mC]) [compound 771656]
- % Inhibition of SMAD7 mRNA [3]: 35%
- % inhibition of SMAD7 mRNA expression [3]: 0%

Substance: 771868 (antisense eG*eG*eA*eG*eG*d[5mC]*dA*dA*dA*dT*dT*d[5mC]*dA*dT*dA*eG*eA*e[5mC]*eA*eG) [compound 771868]
- % Inhibition [4]: 16%

Substance: 771449 (eT*e[5mC]*eG*e[5mC]*eA*dG*dA*dG*dT*d[5mC]*dG*dG*d[5mC]*dT*dA*eA*eG*eG*eT*eG; antisense) [compound 771449]
- % Inhibition of SMAD7 mRNA [3]: 4%
- % inhibition of SMAD7 mRNA expression [1]: 0%

Substance: 771503 (antisense eG*e[5mC]*eT*e[5mC]*eA*d[5mC]*dG*d[5mC]*dT*d[5mC]*dT*dG*dT*d[5mC]*d[5mC]*e[5mC]*e[5mC]*eT*e[5mC]*e[5mC]) [compound 771503]
- % inhibition of SMAD7 mRNA expression [4]: 27%

Substance: 771701 (antisense eG*eG*eT*eA*eT*dG*d[5mC]*dA*d[5mC]*dA*d[5mC]*dT*d[5mC]*dT*d[5mC]*e[5mC]*e[5mC]*eA*eG*eG) [compound 771701]
- % inhibition of SMAD7 mRNA expression [2]: 34%

Substance: 771757 (antisense eT*e[5mC]*e[5mC]*e[5mC]*e[5mC]*dT*dT*dT*dT*dT*dT*dA*dA*dT*dT*eG*eA*eG*eG*eA) [compound 771757]
- % inhibition of SMAD7 mRNA expression [2]: 48%

Substance: 771925 (antisense eG*eG*e[5mC]*e[5mC]*eT*d[5mC]*dT*d[5mC]*dG*d[5mC]*dT*dG*dA*dT*dA*eG*eT*eT*eA*eA) [compound 771925]
- % inhibition of SMAD7 mRNA expression [2]: 10%

Substance: 771853 (antisense eA*eG*e[5mC]*eT*eT*dG*dG*dA*dA*dG*d[5mC]*d[5mC]*dA*dT*d[5mC]*eG*eG*eT*eT*eG) [compound 771853]
- % inhibition of SMAD7 mRNA expression [2]: 36%

Substance: 771894 (antisense e[5mC]*eA*eA*eA*eA*dG*dG*dG*dA*dA*dA*dG*dG*dA*dG*eG*eT*eT*eT*eG) [compound 771894]
- % Inhibition [4]: 17%

Substance: 771744 (antisense eG*eG*e[5mC]*eT*eA*dT*dT*d[5mC]*d[5mC]*d[5mC]*dA*dA*dG*dA*dG*eT*e[5mC]*e[5mC]*eA*eG) [compound 771744]
- % Inhibition of SMAD7 mRNA [3]: 40%
- % inhibition of SMAD7 mRNA expression [1]: 23%

Substance: 771789 (antisense e[5mC]*e[5mC]*e[5mC]*eA*eA*dA*dA*d[5mC]*dA*dG*dT*dG*dT*dA*d[5mC]*e[5mC]*e[5mC]*eT*e[5mC]*e[5mC]) [compound 771789]
- % inhibition of SMAD7 mRNA expression [2]: 30%

Substance: 771660 (antisense eT*eT*e[5mC]*eT*e[5mC]*dT*dT*dG*dT*dT*d[5mC]*dA*dT*dT*dT*eA*eA*eA*e[5mC]*e[5mC]) [compound 771660]
- % inhibition of SMAD7 mRNA expression [4]: 0%

Substance: 771867 (antisense eA*e[5mC]*eT*eG*eG*dG*d[5mC]*dT*dT*d[5mC]*dA*dG*d[5mC]*dA*dA*eA*eG*eA*eT*eA) [compound 771867]
- % Inhibition [4]: 19%
- % inhibition of SMAD7 mRNA expression [5]: 39%

Substance: 771477 (antisense eT*eG*e[5mC]*eG*eG*dT*dT*dG*dT*dA*d[5mC]*dA*d[5mC]*d[5mC]*d[5mC]*eA*e[5mC]*eA*e[5mC]*eA) [compound 771477]
- % inhibition of SMAD7 mRNA expression [4]: 20%

Substance: 771713 (antisense eT*eG*e[5mC]*e[5mC]*eT*dA*d[5mC]*dA*d[5mC]*dA*d[5mC]*dA*dA*dA*dA*eA*eG*e[5mC]*e[5mC]*eA) [compound 771713]
- % inhibition of SMAD7 mRNA expression [1]: 15%

Substance: 771370 (antisense e[5mC]*eA*eT*eT*e[5mC]*d[5mC]*dA*dA*dA*dA*dG*dG*d[5mC]*dT*dG*eA*e[5mC]*eT*e[5mC]*eG) [compound 771370]
- % Inhibition [4]: 18%

Substance: 771816 (antisense eA*eT*e[5mC]*e[5mC]*eA*dA*d[5mC]*dT*dA*d[5mC]*dT*d[5mC]*dA*dG*dA*eG*eG*e[5mC]*eT*eG) [compound 771816]
- % Inhibition of SMAD7 mRNA [3]: 28%
- % inhibition of SMAD7 mRNA expression [1]: 27%

Substance: 771593 (antisense e[5mC]*eG*e[5mC]*eT*eG*d[5mC]*dT*d[5mC]*dA*dG*dA*dA*dG*d[5mC]*d[5mC]*eT*eG*eT*eG*eG) [compound 771593]
- % inhibition of SMAD7 mRNA expression [1]: 41%

Substance: 771577 (antisense eT*eG*e[5mC]*e[5mC]*eT*d[5mC]*dT*dG*d[5mC]*d[5mC]*d[5mC]*d[5mC]*dA*d[5mC]*dT*eG*eA*eG*e[5mC]*eG) [compound 771577]
- % inhibition of SMAD7 mRNA expression [1]: 21%

Substance: 771784 (antisense eT*eA*eA*eA*eT*d[5mC]*dA*dA*dG*dA*dG*d[5mC]*dT*dG*dA*eA*eA*eT*eT*e[5mC]) [compound 771784]
- % Inhibition of SMAD7 mRNA [3]: 1%
- % inhibition of SMAD7 mRNA expression [1]: 0%

Substance: 771493 (antisense e[5mC]*eG*eG*eG*e[5mC]*dA*dG*d[5mC]*dT*dG*d[5mC]*dT*dG*dA*dT*eG*eA*eA*e[5mC]*eT) [compound 771493]
- % inhibition of SMAD7 mRNA expression [4]: 17%

Substance: 771453 (antisense eA*eT*e[5mC]*eT*eG*dG*dA*d[5mC]*dA*dG*dT*d[5mC]*dT*dG*d[5mC]*eA*eG*eT*eT*eG) [compound 771453]
- % inhibition of SMAD7 mRNA expression [4]: 38%

Substance: 771855 (antisense eT*e[5mC]*e[5mC]*e[5mC]*eG*dA*d[5mC]*dT*dT*dT*dG*d[5mC]*dA*dA*dG*eA*eT*eG*eA*eA) [compound 771855]
- % Inhibition [4]: 38%

Substance: 771834 (antisense eA*eA*e[5mC]*eA*eT*dA*dA*dA*dG*dT*dT*d[5mC]*dT*d[5mC]*dA*eA*eA*e[5mC]*eA*eG) [compound 771834]
- % inhibition of SMAD7 mRNA expression [1]: 25%

Substance: 771874 (antisense eA*eT*eT*eA*e[5mC]*dT*dT*d[5mC]*dT*dG*dT*d[5mC]*dT*dG*d[5mC]*e[5mC]*eT*e[5mC]*e[5mC]*eG) [compound 771874]
- % inhibition of SMAD7 mRNA expression [1]: 34%

Substance: 771347 (antisense eT*eG*eG*eG*e[5mC]*d[5mC]*dA*d[5mC]*dT*dG*dG*dT*dG*dT*dT*e[5mC]*eG*eA*e[5mC]*eG) [compound 771347]
- % Inhibition of SMAD7 mRNA [3]: 32%
- % inhibition of SMAD7 mRNA expression [1]: 0%

Substance: 771618 (antisense e[5mC]*eA*eG*eG*eA*dT*dG*dG*dG*dA*dG*d[5mC]*dA*dG*dG*e[5mC]*eA*eG*eT*eG) [compound 771618]
- % inhibition of SMAD7 mRNA expression [3]: 30%

Substance: 771736 (antisense eT*eG*e[5mC]*e[5mC]*eA*dG*dA*dT*d[5mC]*dT*d[5mC]*dA*dG*dG*dT*e[5mC]*eA*eA*eG*eA) [compound 771736]
- % Inhibition of SMAD7 mRNA [3]: 34%
- % inhibition of SMAD7 mRNA expression [1]: 0%
